Activity calls are given as the source filed them. No cut-off for these calls is given here.
How the values were obtained:
[1] = Inhibition of HIF-1 transcriptional activity in human HeLa cells transfected with hypoxia response element-dependent luciferase reporter gene under hypoxic conditions; type: cell-based
[2] = system: HeLa; assay: Growth inhibition of human HeLa cells by MTT assay; type: functional, cell-based
[3] = system: HeLa; assay: Inhibition of HIF-1-alpha protein expression in human HeLa cells at 100 uM by Western blot analysis; type: functional, cell-based
[4] = system: HeLa; assay: Inhibition of HIF-1 transcriptional signaling in human HeLa cells assessed as reduction in CA9 protein expression at 100 uM under hypoxia conditions by Western blot analysis; type: cell-based
[5] = system: HeLa; assay: Inhibition of HIF-1-alpha mRNA expression in human HeLa cells under hypoxia conditions at 100 uM by qPCR analysis; type: functional, cell-based

SMILES	IC50 ([1]; Homo sapiens, HeLa)	IC50 ([2]; Homo sapiens, HeLa)	IC50 ([1]; hela)	IC50 ([2]; hela)	inhibition [3]	inhibition [4]	inhibition [5]
CC(C)CC(=O)O[C@]12CC[C@@H](OC(=O)Cc3ccccc3)C(C1)[C@@H](NCc1ccccc1)[C@@H]1O[C@@H]12 (mixture of isomers)	17.2 µM	3.5 µM					
CC(C)CN[C@@H]1C2C[C@](OC(=O)Cc3ccccc3)(CC[C@H]2OC(=O)CC(C)C)[C@H]2O[C@@H]12 (stereo in doubt; 16f) [listing 1 of 2 here]			19 µM	76.1 µM			
CC(C)CN[C@@H]1C2C[C@](OC(=O)CC(C)C)(CC[C@H]2OC(=O)CC(C)C)[C@H]2O[C@@H]12	21.7 µM	79.6 µM			Active	Active	
CC(C)CC(=O)O[C@@H]1CC[C@@]2(OC(=O)CC(C)C)CC1[C@@H](NCc1ccccc1)[C@@H]1O[C@@H]12	24.7 µM	9.4 µM					
CC(C)CC(=O)O[C@@H]1CC[C@@]2(OC(=O)Cc3ccccc3)CC1[C@@H](NCc1ccccc1)[C@@H]1O[C@@H]12	31 µM	39.5 µM					
CC(C)CN[C@@H]1C2C[C@](OC(=O)CC(C)C)(CC[C@H]2OC(=O)Cc2ccccc2)[C@H]2O[C@@H]12	20.4 µM	89.1 µM			Active	Active	
CC(C)CN[C@@H]1C2C[C@](OC(=O)Cc3ccccc3)(CC[C@H]2OC(=O)CC(C)C)[C@H]2O[C@@H]12 (stereo in doubt; 16f) [listing 2 of 2 here]					Active	Active	Active
CC(C)CN[C@@H]1C2C[C@](OC(=O)Cc3ccccc3)(CC[C@H]2OC(=O)CC(C)C)[C@H]2O[C@@H]12 (stereo in doubt)			46.4 µM	32.3 µM			
CC(C)CN[C@@H]1C2C[C@](OC(=O)Cc3ccccc3)(CC[C@H]2OC(=O)Cc2ccccc2)[C@H]2O[C@@H]12	31.7 µM	> 100 µM					
O=C(Cc1ccccc1)O[C@@H]1CC[C@@]2(OC(=O)Cc3ccccc3)CC1[C@@H](NCc1ccccc1)[C@@H]1O[C@@H]12 (mixture of isomers)	19.5 µM	14.2 µM					

Reference: ChEMBL document CHEMBL5143551, “Synthesis of sp3-rich chiral bicyclo[3.3.1]nonanes for chemical space expansion and study of biological activities” (Bioorg Med Chem, 2022)
